Reference: patent US7151108B2, “[3,4-a:3,4-c]carbazole compounds” (Les Laboratories Servier, priority 2002, dated 2006)

Experiments:
L1210 murine leukaemia = assay: In vitro antiproliferative activity (Microculture Tetrazolium Assay) on L1210; format: cell-based; details: L1210 cells, exposure 4 doubling periods or 48 hours; read-out: IC50, the concentration of cytotoxic agent that inhibits the proliferation of the treated cells by 50%
Procedure: (§1) Three cell lines were used: • L1210 murine leukaemia • A549 non-small-cell human lung carcinoma • DU145 prostate carcinoma
(§2) L1210 murine leukaemia was used in vitro. The cells are cultured in RPMI 1640 complete culture medium containing 10% foetal calf serum, 2 mM glutamine, 50 units/ml of penicillin, 50 μg/ml of streptomycin and 10 mM Hepes, pH: 7.4. The cells are distributed on microplates and are exposed to the cytotoxic compounds for 4 doubling periods, or 48 hours. The number of viable cells is then quantified by a colorimetric assay, the Microculture Tetrazolium Assay (J. Carmichael et al., Cancer Res.; 47, 936–942 (1987)). The results are expressed as the IC50, the concentration of cytotoxic agent that inhibits the proliferation of the treated cells by 50%.

[1] = tested on: A549 non-small-cell human lung carcinoma; assay: In vitro antiproliferative activity (Microculture Tetrazolium Assay) on A549; format: cell-based; details: A549 cells; read-out: IC50, the concentration of cytotoxic agent that inhibits the proliferation of the treated cells by 50%
Procedure: as §1, §2

DU145 prostate carcinoma = assay: In vitro antiproliferative activity (Microculture Tetrazolium Assay) on DU145; format: cell-based; details: DU 145 cells; read-out: IC50, the concentration of cytotoxic agent that inhibits the proliferation of the treated cells by 50%
Procedure: as §1, §2

SMILES | melting point | IC50 (L1210 murine leukaemia) | IC50 [1] | IC50 (DU145 prostate carcinoma)
Cn1c(=O)c2c3[nH]c4ccccc4c3c3c(=O)oc(=O)c3c2c1=O | 294 °C (dec.) | – | – | –
Cn1c(=O)c2c3[nH]c4ccccc4c3c3c(=O)n(C)c(=O)c3c2c1=O [Example 2, 2,5-dimethyl-1H-dipyrrolo[3,4-a:3,4-c]carbazole-1,3,4,6(2H,5H,7H)-tetrone] | – | 6.8 µM | 4.7 µM | 5.4 µM
